Assay [1] deals with mice with scopolamine-induced amnesia. The assay is described as follows: Passive avoidance test in mice with scopolamine-induced amnesia. Format: in vivo, Male ICR mice. Particulars: for cognition-enhancing activity in passive avoidance test, in words: mice with scopolamine-induced amnesia. The source says: Male ICR mice weighing 25 to 30 g that had been bred with sufficient water and feed in the Experimental Animal Breeding Center of Seoul National University were supplied and adapted to the laboratory environment for 1 week to be used in this experiment.
An avoidance box (40×20×20 cm) equipped with 3 mm stainless steel rod spaced 0.5 cm apart at the bottom was divided into a light compartment and a dark compartment, and when mice placed in the light compartment entered the dark compartment, an electrical shock (0.1 mA/10 g body weight) was delivered through the stainless steel rods. The above procedure was repeated after 24 hours, and the time for which the mice stayed at the light compartment was measured and used as an index of memorizing the training of the previous day. Passive avoidance test was performed according to the method of Christensen et al. (Cholinergic ‘Blockade’ as a model of the cognitive deficits in Alzheimer's disease, Brain 115: 1681–1699, 1992). Specifically, scopolamine was dissolved in physiological saline to 1.5 mg/kg solution, and the solution was subcutaneously injected to mice 30 minutes before the training to induce amnesia. The Angelica gigas extract was intraperitoneally injected to the mice 1 hour before the scopolamine administration, and observed for its effect on the scopolamine-induced amnesia.
Passive avoidance test was performed according to the method of the above Experiment 1(2) to measure effects of pyranocoumarin derivatives of the present invention. Velnacrine (AChE inhibitor) was used as a positive control.

For assay [2], the target named is T1, AChE (Electric eel Type V-S, Sigma) (Electrophorus electricus, UniProt O42275).
T1 construct: purchased Sigma Type V-S
T1 sequence (O42275 24-633): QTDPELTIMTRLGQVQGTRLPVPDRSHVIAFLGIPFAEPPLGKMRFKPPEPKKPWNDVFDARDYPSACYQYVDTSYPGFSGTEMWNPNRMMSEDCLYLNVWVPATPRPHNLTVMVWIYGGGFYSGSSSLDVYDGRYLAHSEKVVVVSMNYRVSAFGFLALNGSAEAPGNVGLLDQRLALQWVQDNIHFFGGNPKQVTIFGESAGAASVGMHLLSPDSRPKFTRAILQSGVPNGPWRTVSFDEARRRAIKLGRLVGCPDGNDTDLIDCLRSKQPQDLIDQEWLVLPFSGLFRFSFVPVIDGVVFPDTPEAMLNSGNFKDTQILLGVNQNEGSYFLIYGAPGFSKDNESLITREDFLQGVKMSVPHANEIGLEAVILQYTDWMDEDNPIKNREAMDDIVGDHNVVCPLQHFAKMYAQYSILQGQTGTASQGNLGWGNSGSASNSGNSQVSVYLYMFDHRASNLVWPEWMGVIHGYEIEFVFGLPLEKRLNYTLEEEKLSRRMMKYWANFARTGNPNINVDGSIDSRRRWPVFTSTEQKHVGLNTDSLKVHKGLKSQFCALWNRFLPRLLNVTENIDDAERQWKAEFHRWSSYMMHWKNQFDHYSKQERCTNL
The assay is described as follows: biochemical. Format: biochemical. Here is the method:
AChE inhibitory activity of the methanolic extract and CH2Cl2 fraction of Angelica gigas of the above Example 1 was measured by the method of Ellman et al. (Ellman, et al. (1961) A new and rapid colorimetric determination of acetylcholinesterase activity, Biochem. Pharmacol. 7: 88–95).
(§1) To a test tube containing a chromogen (5,5-dithiobis-2-nitrobenzoic acid) and a sample was added AChE homogenated with phosphate buffered saline (Electric eel Type V-S, Sigma), and a reaction was performed at 37° C. for 5 minutes, and thereto was added a substrate for the enzyme, […], and a reaction was further performed at 37° C. for 3 minutes. Neostigmine bromide was added thereto to terminate the reaction, and then, the absorbance was measured at 412 nm to obtain AChE inhibition (%). The above procedure was repeated with no AChE as a blank, or with no sample as a control.
AChE inhibitory activity of decursin of the above Example 2 and Compound 3 of the above Example 3 was measured according to the method in Experiment 1.
as §1, with “minutes. The above procedure was repeated with no AChE as a blank or with no sample as a control.” for “minutes.”, “obtain IC50 of” for “obtain”, “inhibition.” for “inhibition (%). The above procedure was repeated with no AChE as a blank, or with no sample as a control.”

[3] abbreviates: Table 4, 1 mg/kg + scopolamine 1.5 mg/kg, Mean ± S.D.
Setting [4] is: Table 4, 5 mg/kg + scopolamine 1.5 mg/kg, Mean ± S.D.
The mark [5] stands for this setting: read-out: IC50 of AChE inhibition.

Read-outs that look alike come from different tables or passages of the source.

The term IC50 denotes the midpoint of a concentration-inhibition curve.

Regarding `CN1[C@@H]2C[C@@H](OC(=O)[C@H](CO)c3ccccc3)C[C@H]1[C@@H]1O[C@@H]12` [Scopolamine, scopolamine, reference compound], the “Step-through latency” value in assay [1] (Table 2, scopolamine alone 1.5 mg/kg s.c. (amnesia induction), saline 158.8 ± 27.6) worked out at 29.7 ± 3.1 s; in assay [1] (Table 4, scopolamine alone 1.5 mg/kg s.c. (amnesia induction), saline 172.0 ± 16.0), 29.7 ± 2.8 s; in assay [1] (Table 5, scopolamine alone 1.5 mg/kg s.c. (amnesia induction), saline 179.7 ± 0.6), 28.4 ± 10.1 s.

As to `CC1(C)Oc2cc3oc(=O)ccc3cc2C[C@@H]1O` [Compound 2, decursinol, reference compound], the “Step-through latency” value in assay [1] (setting [3]) was determined as 52.1 ± 8.8 s; in assay [1] (setting [4]), 54.4 ± 10.6 s; in assay [1] (Table 4, 10 mg/kg + scopolamine 1.5 mg/kg, Mean ± S.D.) it was 43.2 ± 7.7 s. The “cognition-enhancing activity in passive avoidance test, in words” value (“cognition-enhancing activity” for short) in assay [1] is given as “did not show such activity”. Moreover, the IC50 in assay [2] (setting [5]) is 28 µM.

For `COc1ccc(/C=C/C(=O)OC2Cc3cc4ccc(=O)oc4cc3OC2(C)C)cc1` (stereo not drawn) [Compound 3], the “Step-through latency” value came to 42.0 ± 17.9 s in assay [1] (Table 5, 1 mg/kg + scopolamine 1.5 mg/kg, Mean ± S.D.); 86.0 ± 18.2 s in assay [1] (Table 5, 2 mg/kg + scopolamine 1.5 mg/kg, Mean ± S.D.); 171.2 ± 18.7 s in assay [1] (Table 5, 5 mg/kg + scopolamine 1.5 mg/kg, Mean ± S.D.). Also, the “cognition-enhancing activity” value in assay [1] is given as “excellent cognition-enhancing activity”. Moreover, the “AChE inhibitory activity, comparison in words” value in assay [2] is “better AChE inhibitory activity than decursinol”. In assay [2] (setting [5]), the IC50 turned out to be 51 µM.

In the case of `CC(C)=CC(=O)O[C@H]1Cc2cc3ccc(=O)oc3cc2OC1(C)C` [Compound 1, decursin], the “Step-through latency” value in assay [1] (Table 4, 0.5 mg/kg + scopolamine 1.5 mg/kg, Mean ± S.D.) worked out at 32.1 ± 13.4 s; in assay [1] (setting [3]), 108.6 ± 15.0 s; in assay [1] (setting [4]), 96.5 ± 18.2 s. In addition, in assay [1], the “cognition-enhancing activity” value was “excellent cognition-enhancing activity”. In assay [2], the “AChE inhibitory activity, comparison in words” value is “better AChE inhibitory activity than decursinol”. Also, in assay [2], the IC50 was determined as 480 µM.

With `Nc1c2c(nc3ccccc13)CCCC2O` (stereo not drawn) [velnacrine, Velnacrine, reference compound], in assay [1] (setting [3]), the “Step-through latency” value was 73.4 ± 6.4 s.

The values are drawn from patent publication US7115655B2, “Pyranocoumarin derivatives” (Elcom Biotechnology, Co. Ltd., priority 2002, dated 2006).
